Where two headings read alike, the source gives them in different places.
What was measured:
Format in all cases: cell-based
Rat isolated portal vein = experiment: Rat isolated portal vein: spontaneous contractions and contractions due to added calcium; settings: 0.25 h
Protocol: (1) Rat isolated portal vein.
Male Sprague Dawley rats (250-350) were killed by cervical dislocation. Portal veins (2-3 cm in length) were set up under 0.8-1 g tension in a 10 ml organ bath containing Krebs-Henseleit solution, at 37° C., of the following composition (mM): NaCl 118, NaHCO3 25, glucose 5, KH2 PO4 1.18, KCl 4.69, MgSO4 0.59, CaCl2.H2 O 1.87. The tissue was aerated with a 95% oxygen and 5% carbon dioxide mixture. Isometric tension was recorded using a Devices strain gauge and recorder. Each preparation was allowed 1 h to equilibrate before the addition of test compound. The ability of a compound to inhibit the contractions due to added calcium (3 mM CaCl2) was determined in tissues bathed in Krebs-Henseleit solution containing 0.05 mM CaCl2 (in order to reduce spontaneous contractions). Then percentage inhibition (mean± s.e.m.; 6-9 tissues) of the amplitude of the spontaneous contractions, and contractions due to added calcium, was determined after 15 min contact time with test compound.

[1] = test system: Rabbit isolated mesenteric artery; experiment: Rabbit isolated mesenteric artery: relaxation of contractions due to KCl; settings: Oryctolagus cuniculus
Protocol: (2) Rabbit isolated mesenteric artery.
Mesenteric arteries (3 mm rings) were removed from male New Zealand White rabbits and mounted, at a resting tension of 1.5-2.0 g, in a 10 ml organ bath containing a Ringer solution, at 37° C., of the following composition (mM): NaCl 120.8; KCl 5.9; CaCl2 2.5; MgCl2 1.2; HEPES 5.8; glucose 11.5. The bathing solution was bubbled with a 95% oxygen and 5% carbon dioxide mixture. Each preparation was allowed 1-11/2h to equilibrate before the addition of either 30 or 90 mM KCl to contract the tissue. The ability of test compound to relax the sustained contraction due to KCL was determined by assessing the % reduction (mean± s.e.m.; 4-9 tissues) produced by varying concentrations of test compound.

[2] = test system: rat urinary bladder (detrusor) strip; experiment: Rat Detrusor Strip Screen: inhibition of electrically induced isometric contractions
Protocol: Rat Detrusor Strip Screen
Male Wistar Charles River rats (Crl: WI BR) weighing 300-350 g were used.
The urinary bladder was removed and a longitudinal strip 3 mm wide was cut from the urethra to the apex of the bladder.
The strip was immediately immersed in a 20 ml bath containing Tyrode with double millimolar concentration of glucose (11.1 instead of 5.55) and with addition of sucrose (13.3 millimolar), kept at 37° C. and aerated with a mixture of O2 95% and CO2 5%.
Tyrode composition was (mM): NaCl 136.8, KCl 2.68, CaCl2 1.80, MgSO4.7H2 O 1.05, NaH2 PO4.H2 O 0.41, NaHCO3 11.9, glucose 11.1 sucrose 13.3. The strip was in direct contact with one of the two platinum electrodes placed on the top and bottom of the organ bath. Placed under an initial tension of 2 g, the strip was then allowed to relax until a baseline of about 1 g. After a 5 min equilibration period isometric contractions were induced by a GRASS S88 2 channel stimulator using the following parameters trains of pulses of 2 sec duration each every 100 sec; square wave pulse of volts (60-70); duration 0.7 ms and 30 Hz.
When the contractions became constant (60-90 min), the strips were exposed to the test compound. The isometric contractions were measured with a Basile DYl force transducer connect to Battaglia Rangoni 4 channel recorder. The results are expressed as per cent of contraction inhibition.

Row | Compound | Mean % inhibition ([2]; Molar Conc 1 × 10^-5) | Mean % inhibition ([2]; Molar Conc 3 × 10^-5) | further results
1 | CC1(C)Oc2ccc(C#N)cc2[C@@H](N2CCCC2=O)[C@@H]1O (relative stereo) [Compound 1, 6-cyano-3,4-dihydro-2,2-dimethyl-trans-4-(2-oxo-1-pyrrolidinyl)-2H-benzo[b]pyran-3-ol] | -46.4% | – | IC50 (Rat isolated portal vein; amplitude of spontaneous contractions, 15 min contact time, read-out: IC50 Spontaneous (contractions)): 120 nM; IC50 (Rat isolated portal vein; contractions due to added calcium (3 mM CaCl2) in Krebs-Henseleit with 0.05 mM CaCl2, 15 min contact time, read-out: IC50 Ca^2+ (3 mM)): 150 nM; IC50 ([1]; sustained contraction due to 30 mM KCl, read-out: IC50 30 mM KCl): 510 nM; IC50 ([1]; sustained contraction due to 90 mM KCl, read-out: IC50 90 mM KCl): > 10000 nM
2 | CC1(C)Oc2ccc(C#N)cc2[C@@H](N2CCCCC2=O)[C@@H]1O (relative stereo) [Compound 3] | – | – | Mean % inhibition ([2]; Molar Conc 1 × 10^-6): -34.2%
3 | CC(=O)N[C@@H]1c2cc(C#N)ccc2OC(C)(C)[C@H]1O (relative stereo) [Compound 4, trans-4-N-acetylamino-6-cyano-3,4-dihydro-2,2-dimethyl-2H-benzo[b]pyran-3-ol] | – | -32.9% | –
4 | CC1(C)Oc2ccc(C#N)cc2[C@@H](N2CCNCC2=O)[C@@H]1O (relative stereo) [Compound 5, 6-cyano-3,4-dihydro-2,2-dimethyl-trans 4-(2-oxo-1-piperazinyl)-2H-benzo[t]pyran-3-ol] | -37.2% | – | –
5 | CNC(=O)N[C@@H]1c2cc(C#N)ccc2OC(C)(C)[C@H]1O (relative stereo) [Compound 6, trans-6-cyano-3,4-dihydro-2,2-dimethyl-4-(N-methylureido)-2H-1-benzo[b]pyran-3-ol] | – | -44.2% | –
6 | CC1(C)C=C(N2CCCC2=O)c2cc(C#N)ccc2O1 [Compound 2, 6-cyano-2,2-dimethyl-4-(2-oxo-1-pyrrolidinyl)-2H-1-benzopyran] | -59.7% | – | –

Source: patent US4738963A, “Method for the treatment of incontinence in mammals” (Beecham Group p.l.c., priority 1985, dated 1988)
